Several values for one entry are separate records, joined by “and”; a condition that tells them apart may be missing. Equal entries are not always repeated.
Key:
[1] = tested on: Lewis rats, CIA model; assay: Collagen-induced semi-established arthritis model in rats; assay type: in vivo, rat; conditions: for Bone Resorption score, Mean / Cartilage Damage score, Mean / Inflammation score, Mean / Pannus score, Mean / Periosteal Bone Formation score, Mean / Periosteal Naïve Bone Width Actual, Mean / Summed Histopathology Scores, Mean: group mean; for Bone Resorption score (0=normal to 5=severe) / Cartilage Damage score (0=normal to 5=severe) / Inflammation score (0=normal to 5=severe) / Pannus score (0=normal to 5=severe) / Periosteal Bone Formation score (0=normal to 5=severe) / Periosteal Naïve Bone Width 16x Measure / Periosteal Naïve Bone Width Actual / Summed Histopathology Scores: individual joint (animal, R/L); for Bone Resorption score, % inhibition / Cartilage Damage score, % inhibition / Inflammation score, % inhibition / Pannus score, % inhibition / Periosteal Bone Formation score, % inhibition / Periosteal Naïve Bone Width, % inhibition / Summed Histopathology Scores, % inhibition: vs vehicle
Procedure: Rat CIA model was performed was performed at Pharmenterprises, Russia and approved by Ethics Committee of Pharmenterprises. Female Lewis rats with body weight of 164–183 g (Charles River Laboratories, Inc., Wilmington, MA) were injected with porcine type II collagen (Chondrex) emulsified with Freund’s Incomplete Adjuvant (Sigma Aldrich) at two sites at the base of the tail according to standard protocol. On day 7, the rats were boosted with a second subcutaneous injection. On day 6 of the study, rats were randomized by body weight into six groups: a control group of four, and five treatment groups of eight. […] Disease progression was monitored via daily ankle thickness measurements. At study termination on day 16 rats were anesthetized with Isoflurane, bled by vacutainer through the descending aorta to exsanguinate and then euthanized for tissue collection. Hind paws were transected at the level of the medial and lateral malleolus, weighed, and collected for microscopy.
[…]

[2] = target: T1, MKK6 (Homo sapiens, UniProt P52564); assay: Kinase selectivity profile assay; assay type: biochemical; conditions: 500 nM; relative to DMSO; read-out: Residual enzymatic activity
T1 construct: purchased Reaction Biology Corporation
T1 sequence (P52564 whole entry): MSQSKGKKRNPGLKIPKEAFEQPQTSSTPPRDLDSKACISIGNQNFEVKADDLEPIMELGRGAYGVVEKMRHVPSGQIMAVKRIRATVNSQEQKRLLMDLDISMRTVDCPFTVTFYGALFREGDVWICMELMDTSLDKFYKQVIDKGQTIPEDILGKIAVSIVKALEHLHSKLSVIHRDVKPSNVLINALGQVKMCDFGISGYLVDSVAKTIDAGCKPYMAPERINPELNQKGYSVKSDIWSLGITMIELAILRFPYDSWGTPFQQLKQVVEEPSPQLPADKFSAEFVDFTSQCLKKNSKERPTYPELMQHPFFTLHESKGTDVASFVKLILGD
Method in brief: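 Radiometric kinase assay run by a standard protocol. Unbound phosphate was removed by washing filters in phosphoric acid, and product radioactivity gave percent remaining kinase activity versus DMSO vehicle reactions. Run in duplicate.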

[3] = target: T2, DYRK4 (Homo sapiens, UniProt Q9NR20); assay: Kinase selectivity profile assay; assay type: biochemical; conditions: 500 nM; relative to DMSO; read-out: Residual enzymatic activity
T2 construct: purchased Reaction Biology Corporation
T2 sequence (Q9NR20 whole entry): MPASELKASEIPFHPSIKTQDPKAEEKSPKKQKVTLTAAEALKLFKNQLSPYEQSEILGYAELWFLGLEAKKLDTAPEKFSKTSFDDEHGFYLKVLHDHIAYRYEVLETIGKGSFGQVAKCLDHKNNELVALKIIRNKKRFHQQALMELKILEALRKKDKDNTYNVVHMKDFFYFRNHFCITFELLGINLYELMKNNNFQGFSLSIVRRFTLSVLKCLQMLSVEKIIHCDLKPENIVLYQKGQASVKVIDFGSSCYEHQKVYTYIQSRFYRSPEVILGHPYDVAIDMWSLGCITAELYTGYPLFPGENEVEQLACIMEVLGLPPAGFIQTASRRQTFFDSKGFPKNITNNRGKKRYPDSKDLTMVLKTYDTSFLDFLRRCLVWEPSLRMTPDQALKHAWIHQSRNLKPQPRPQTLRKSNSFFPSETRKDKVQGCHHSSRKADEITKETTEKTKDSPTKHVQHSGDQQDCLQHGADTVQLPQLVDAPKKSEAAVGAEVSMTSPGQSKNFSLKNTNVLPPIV
Procedure: The activity of MT-SYK-03 against cSrc kinase and selectivity profile towards other 341 kinases was determined at Reaction Biology Corporation (Malvern, PA, USA) using the standard kinase assay protocol. […] Kinase activity data was expressed as the percent remaining kinase activity in test samples compared to vehicle (dimethyl sulfoxide) reactions based on the radioactivity of reaction products (see Table S2). Experiment was replicated twice.

[4] = tested on: 341 kinases; assay: Kinase selectivity profile, whole panel; assay type: biochemical, human; conditions: 500 nM
Procedure: The activity of MT-SYK-03 against cSrc kinase and selectivity profile towards other 341 kinases was determined at Reaction Biology Corporation (Malvern, PA, USA) using the standard kinase assay protocol. […]; unbound phosphate was removed by extensive washing of filters in phosphoric acid. Kinase activity data was expressed as the percent remaining kinase activity in test samples compared to vehicle (dimethyl sulfoxide) reactions based on the radioactivity of reaction products (see Table S2). Experiment was replicated twice.

[5] = ankle, day 16, MT-SYK-03 103 mg/kg PO BID + MTX Veh PO QD
[6] = ankle, day 16, MT-SYK-03 103 mg/kg PO BID + MTX Veh PO QD, 103 mg/kg
[7] = ankle, day 16, MT-SYK-03 207 mg/kg PO BID
[8] = ankle, day 16, MT-SYK-03 207 mg/kg PO BID, 207 mg/kg
[9] = knee, day 16, MT-SYK-03 103 mg/kg PO BID + MTX Veh PO QD
[10] = knee, day 16, MT-SYK-03 103 mg/kg PO BID + MTX Veh PO QD, 103 mg/kg
[11] = knee, day 16, MT-SYK-03 207 mg/kg PO BID + MTX Veh PO QD
[12] = knee, day 16, MT-SYK-03 207 mg/kg PO BID + MTX Veh PO QD, 207 mg/kg

COc1cc(Nc2ncnc(Nc3cc4c(cn3)NC(=O)C(C)(C)O4)n2)cc(OC)c1OC [MT-SYK-03]
Bone Resorption score, Mean [1, 5]: 1.50 | Cartilage Damage score, Mean [1, 5]: 2.09 | Inflammation score, Mean [1, 5]: 4.44 | Pannus score, Mean [1, 5]: 1.50 | Periosteal Bone Formation score, Mean [1, 5]: 1.19 | Periosteal Naïve Bone Width Actual, Mean [1, 5]: 200.81 μm | Summed Histopathology Scores, Mean [1, 5]: 10.72 | Bone Resorption score (0=normal to 5=severe) [1, 6]: 2 and 0.5 and 1 | Cartilage Damage score (0=normal to 5=severe) [1, 6]: 3 and 0.5 and 2 and 1 | Inflammation score (0=normal to 5=severe) [1, 6]: 5 and 2 and 4 and 3 | Pannus score (0=normal to 5=severe) [1, 6]: 2 and 0.5 and 1 | Periosteal Bone Formation score (0=normal to 5=severe) [1, 6]: 2 and 0 and 1 and 0.5 | Periosteal Naïve Bone Width 16x Measure [1, 6]: 5 and 0 and 3 and 2 and 1 and 4 | Periosteal Naïve Bone Width Actual [1, 6]: 315 μm and 0 μm and 189 μm and 126 μm and 63 μm and 252 μm | Summed Histopathology Scores [1, 6]: 14 and 3.5 and 12 and 13 and 10 and 6.5 and 7.5 and 8.5 | Bone Resorption score, % inhibition [1, 5]: −2% | Cartilage Damage score, % inhibition [1, 5]: 13% | Inflammation score, % inhibition [1, 5]: 1% | Pannus score, % inhibition [1, 5]: -2% | Periosteal Bone Formation score, % inhibition [1, 5]: 7% | Periosteal Naïve Bone Width, % inhibition [1, 5]: 11% | Summed Histopathology Scores, % inhibition [1, 5]: 4% | Bone Resorption score, Mean [1, 7]: 1.06 | Cartilage Damage score, Mean [1, 7]: 1.78 | Inflammation score, Mean [1, 7]: 3.84 | Pannus score, Mean [1, 7]: 1.06 | Periosteal Bone Formation score, Mean [1, 7]: 0.69 | Periosteal Naïve Bone Width Actual, Mean [1, 7]: 129.94 μm | Summed Histopathology Scores, Mean [1, 7]: 8.44 | Bone Resorption score (0=normal to 5=severe) [1, 8]: 1 and 2 and 0 and 0.5 | Cartilage Damage score (0=normal to 5=severe) [1, 8]: 2 and 3 and 0.5 and 1 | Inflammation score (0=normal to 5=severe) [1, 8]: 4 and 5 and 0.5 and 1 and 2 and 3 | Pannus score (0=normal to 5=severe) [1, 8]: 1 and 2 and 0 and 0.5 | Periosteal Bone Formation score (0=normal to 5=severe) [1, 8]: 0.5 and 1 and 0 and 2 | Periosteal Naïve Bone Width 16x Measure [1, 8]: 1 and 2 and 3 and 4 and 0 and 5 | Periosteal Naïve Bone Width Actual [1, 8]: 63 μm and 126 μm and 189 μm and 252 μm and 0 μm and 315 μm | Summed Histopathology Scores [1, 8]: 8.5 and 12.5 and 13 and 12 and 10 and 1 and 1.5 and 3.5 and 4 and 14 and 6.5 | Periosteal Naïve Bone Width, ANOVA to Vehicle ([1]; ankle, day 16, MT-SYK-03 207 mg/kg PO BID, p value): p < 0.05 | Bone Resorption score, % inhibition [1, 7]: 28% | Cartilage Damage score, % inhibition [1, 7]: 26% | Inflammation score, % inhibition [1, 7]: 15% | Pannus score, % inhibition [1, 7]: 28% | Periosteal Bone Formation score, % inhibition [1, 7]: 46% | Periosteal Naïve Bone Width, % inhibition [1, 7]: 42% | Summed Histopathology Scores, % inhibition [1, 7]: 24% | Bone Resorption score, Mean [1, 9]: 0.66 | Cartilage Damage score, Mean [1, 9]: 1.03 | Inflammation score, Mean [1, 9]: 2.78 | Pannus score, Mean [1, 9]: 0.72 | Summed Histopathology Scores, Mean [1, 9]: 5.19 | Bone Resorption score (0=normal to 5=severe) [1, 10]: 1 and 2 and 0 and 0.5 | Cartilage Damage score (0=normal to 5=severe) [1, 10]: 2 and 0 and 1 and 0.5 | Inflammation score (0=normal to 5=severe) [1, 10]: 5 and 0.5 and 4 and 3 and 2 | Pannus score (0=normal to 5=severe) [1, 10]: 1 and 2 and 0 and 0.5 | Summed Histopathology Scores [1, 10]: 9 and 11 and 0.5 and 7 and 8 and 5 and 4.5 and 3 and 1 | Bone Resorption score, % inhibition [1, 9]: 9% | Cartilage Damage score, % inhibition [1, 9]: 21% | Inflammation score, % inhibition [1, 9]: 13% | Pannus score, % inhibition [1, 9]: 4% | Summed Histopathology Scores, % inhibition [1, 9]: 13% | Bone Resorption score, Mean [1, 11]: 0.16 | Cartilage Damage score, Mean [1, 11]: 0.56 | Inflammation score, Mean [1, 11]: 1.59 | Pannus score, Mean [1, 11]: 0.41 | Summed Histopathology Scores, Mean [1, 11]: 2.63 | Bone Resorption score (0=normal to 5=severe) [1, 12]: 0.5 and 1 and 0 | Cartilage Damage score (0=normal to 5=severe) [1, 12]: 1 and 0 and 0.5 | Inflammation score (0=normal to 5=severe) [1, 12]: 4 and 1 and 0 and 2 and 3 and 0.5 | Pannus score (0=normal to 5=severe) [1, 12]: 0.5 and 1 and 0 | Summed Histopathology Scores [1, 12]: 6 and 7 and 2.5 and 0 and 3 and 4.5 and 2 and 5 and 5.5 and 3.5 and 0.5 | Bone Resorption score, ANOVA to Vehicle ([1]; knee, day 16, MT-SYK-03 207 mg/kg PO BID + MTX Veh PO QD, p value): p < 0.05 | Bone Resorption score, % inhibition [1, 11]: 78% | Cartilage Damage score, % inhibition [1, 11]: 57% | Inflammation score, % inhibition [1, 11]: 50% | Pannus score, % inhibition [1, 11]: 46% | Summed Histopathology Scores, % inhibition [1, 11]: 56% | Histopathology scores for cartilage damage and bone resorption, ankles and knees ([1]; rat CIA, day 16): chondroprotective and antiresorptive effects | Histopathology scores of inflammation and pannus formation ([1]; rat CIA, day 16): smaller | Relative weights of thymus, liver and spleen ([1]; rat CIA, day 16): statistically identical across all groups | remaining activity at 0.5 µM [2]: 116% | remaining activity at 0.5 µM [3]: 104% | Number of kinases inhibited by more than 50% [4]: 34 kinases | Number of kinases inhibited by more than 80% [4]: 13 kinases | Number of kinases inhibited by more than 90% [4]: five

— paper PMC8632988, “Inhibition of SYK and cSrc kinases can protect bone and cartilage in preclinical models of osteoarthritis and rheumatoid arthritis” (Scientific Reports, 2021)
